The test system of assay [1] is NMDAR. In words: NMDAR-mediated currents evoked by uncaging MNI-caged glutamate in cortical cultures, ZX1 potentiation. Conditions: cortical cultures treated with peptide 3 μM overnight; held at −70 mV, Mg2+ free. The format is cell-based, rat. As for the experimental part: FIGS. 5A-5C: N2AZ reduces zinc inhibition of NMDAR currents in cortical cultures. (FIG. 5A) Representative image of a neuron in cortical culture filled with Alexa 548 during whole cell recording. Asterisk represents location of laser photolysis of MNI-caged glutamate (40 μM, 1 millisecond pulse) used to evoke EPSCs. (FIG. 5B) Sample traces of NMDAR EPSCs, averaged over 5 sweeps, evoked by photolysis of MNI-caged glutamate in cortical cultures held at −70 mV in Mg^2 + free solution. […] Bar graphs represent the average potentiation of responses 5 minutes after ZX1 application. Errors bars indicate mean±SEM. […]
Whole-cell recordings from cultured cortical neurons were obtained with glass micropipettes (3-6 MΩ) containing 140 mM CsF, 10 mM CsEGTA, 1 mM CaCl2, 10 mM HEPES, pH=7,2, 295 mOsm. […] Using ephus (Suter et al. 2010) and a Multiclamp 700B amplifier (Molecular Devices), NMDAR excitatory postsynaptic currents (EPSCs) were recorded in voltage clamp (held at −70 mV) in the presence of TTX (300 nM to prevent synaptic activity), DNQX (20 μM, AMPA and kainate receptor antagonist), and 4-Methoxy-7-nitroindolinyl (MNI)-caged glutamate (40 μM). […] The ZX1-mediated potentiation for each cell was calculated as the average percent increase in responses following application of the metal chelator across these 4 uncaging locations. […]

The test system of assay [2] is NMDAR. In words: NMDAR EPSCs in DCN cartwheel cells in brain slices, ZX1 potentiation. Format: cell-based, mice. Conditions: ZX1 100 μM; for ZX1 potentiation of NMDAR-mediated synaptic currents, 20 Hz: slices treated with peptide 3 μM at least 1 hour, parallel fibers stimulated at 20 Hz, +40 mV.

Regarding NDSYLRSSL [Peptide N2AZ], the “ZX1 potentiation of NMDAR-mediated currents above baseline” value in assay [1] came out at 1.34±3.48%. Besides, the “ZX1 potentiation of NMDAR-mediated synaptic currents, WT littermates” value in assay [2] (N2AZ-treated slices (3 μM) from WT littermate controls, 20 Hz) amounted to 5.60±4.38%. Also, the “ZX1 potentiation of NMDAR-mediated synaptic currents, ZnT3 KO” value in assay [2] (N2AZ-treated slices (3 μM) from ZnT3 null mice, 20 Hz) was determined as 11.9±6.90%. Moreover, the “ZX1 potentiation of NMDAR-mediated synaptic currents, 20 Hz” value in assay [2] came to 19.39±5.82%. Further, the “ZX1 potentiation of NMDAR EPSCs, 100 Hz” value in assay [2] (slices treated with peptide 3 μM, 100 Hz stimulation frequency) is reported as 1.95±4.33%.

As for SNLSDSYDR [scN2AZ, reference compound], the “ZX1 potentiation of NMDAR-mediated currents above baseline” value in assay [1] was determined as 37.40±11.63%. The “ZX1 potentiation of NMDAR-mediated synaptic currents, 20 Hz” value in assay [2] is reported as 47.30±10.14%.

Source of the values: patent publication US20230034660A1, “PEPTIDES THAT ENHANCE NMDA RECEPTOR FUNCTION AND USE THEREOF” (University of Pittsburgh - Of the Commonwealth System of …, priority 2019, published 2023).
